One molecule from PMC10600239, “Selective MCL-1 inhibitor ABBV-467 is efficacious in tumor models but is associated with cardiac troponin increases in patients” (Communications Medicine, 2023) can be followed below.

SMILES strings stand for the structures. A value given as a limit tells only on which side of the number the result lay.

Series [1] addresses T1, monkey MCL1 (Macaca mulatta, UniProt F7HUE9).
T1 construct: rhesus monkey (iso4, NM_001 1089 3 7, AA 171-327); made in house; host or cells: E. coli BL21(DE3)-T1R
Nature of the series: TR-FRET binding assay, MCL-1 orthologs. On the set-up: species or system Monkey Macaca sp. On the procedure:
Binding affinities for MCL-1, BCL-2, BCL-XL, BCL-W, and BCL2-A1 were determined using a time-resolved fluorescence resonance energy transfer (FRET) assay. Test compounds were serially diluted in DMSO starting at […] (20× starting concentration; 100% DMSO followed by a 1:10 dilution of the compound DMSO plate into assay buffer); 10 µL of the compound in 10% DMSO was then transferred into a 384-well plate (low-volume Corning #3673 assay plate). Glutathione S-transferase (GST)-tagged recombinant BCL-2, BCL-XL, MCL-1, BCL-W, or BCL2-A1 protein (1 nM each) were mixed with 100 nM Oregon Green™-labeled f-BAK peptide probe and 1 nM Tb-labeled anti-GST antibody were mixed. Then 10 µL of a 2× protein/probe/antibody mix was added to each well of increasing concentrations of test compound in assay buffer (20 mM potassium phosphate, pH 7.6, 50 mM NaCl, 1 mM ethylenediaminetetraacetic acid disodium salt dihydrate, 0.05% pluronic acid F-68, 1 mM DL-dithiothreitol) at room temperature (final concentrations listed in Supplementary Table S2). […] Fluorescence was measured on the EnVision™ (Perkin Elmer) using a 340/35-nm excitation filter and 520/525- (F-Bak) and 495/510-nm (Tb-labeled anti-glutathione S-transferase [GST] antibody) emission filters. Dissociation constants were determined using Wang’s equation[35]. […]
Amino acid sequence homology determined with NCBI BLAST (http://blast.ncbi.nlm.nih.gov). […]
For orientation: TR-FRET usually uses a lanthanide donor and a delayed reading to cut background.

The nature of series [2]: Anesthetized dog cardiovascular safety pharmacology. The class given is in vivo. To be noted: anesthetized beagle, IV 1, 3 and 10 mg/kg. From the text:
ABBV-467 was profiled in safety pharmacology studies in anesthetized (non-Good Laboratory Practice [GLP]) and telemetry-instrumented conscious (GLP) dog cardiovascular assays (Supplementary Table S6).
Supplementary Table S6: Maj or findings in safety pharmac ology cardiovascular studies c onduc ted with ABBV- […]
Species/Strain Route of Concentrations Sex and N Results
Administration or Doses per Group […]
Anesthetized IV 1, 3, and Male No effects up to a plasma concentration dog 10 m g/ k gN=4 o f 16 .83 µg/mL on […]
aged 8-12 months • Heart rate
• Systemic vascular resistance
At 67 .23 mg/m L, an increase in heart rate and decrease in systemic vascular
Conscious IV 0, 0.3, 1, and Male No effects on blood pressure, heart dog 3 mg/kg N=5–6a rate, or ECG parameters at any dose beagle (plasma concentration of 6.53 µg/mL at (aged 8-12 months 3-m g/ k g do s e )
ECG, electrocardiogram; IC50, half maximal inhibitory concentration; IV, intravenous; QTcV, QT interval correct ed accor ding to the Van de Water formula. No animals or data were excl uded from analysis . […] Healthy dogs, as determined by veterinary physical examination and clinical pathology, were selected for study based on availability without explicit randomization. […] Power analysis has shown a group size of 6 can statistically detect an approximately 20 % alteration in measured parameters w ith α =0.0 5. […]

Series [3] addresses Kv11.1 (hERG) (Homo sapiens, UniProt Q12809). In words: in vitro. To be noted: CHO cells expressing human Kv11.1 (hERG).
A short description of series [4]: 4-week (5-dose) IV infusion toxicity study with 4-week recovery. To be noted: rats.
Protocol: (§1) range-finding studies, and 4-we ek (5-dose) with recovery GLP studies in rats and dogs. For all studies, test item was
(§2) administered once weekly by 30 -minute IV infusion. Standard GLP endpoints were assessed including in- life (body weights,
(§3) clinical observations, eye exams), electro cardiograms (dog s only), clinical pathology (hematology, clinical chemistry, and
(§4) coagulation) and anatomic pathology (macroscopic and mic roscopic observations and organ weights).
(§5) Study design was generally in compliance with FDA Redbook
(§6) Guidance IV.C. 3.a. and IV.C.3. b. sections on short-term toxicity studies with rodents and non- rodents, respectively (viz.
(§7) Studies were appr oved by the animal use committee of Charles River Laboratories, Mattawan, MI. No animals or
(§8) data were excluded from analysis. Healthy dogs, as determined by veterinary physical examination and clinical pathology,
(§9) were randomized between dose groups using laboratory information management softw are.
Test in series [5]: as above
Protocol: as §1, §2, §3, §4, §5, §6, §7, §8, §9

T1 sequence (F7HUE9 171-327): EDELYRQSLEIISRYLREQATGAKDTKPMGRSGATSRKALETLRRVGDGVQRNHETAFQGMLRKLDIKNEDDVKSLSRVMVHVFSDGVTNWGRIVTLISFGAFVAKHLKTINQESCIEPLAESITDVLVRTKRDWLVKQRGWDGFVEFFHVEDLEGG
Sequence of Kv11.1 (hERG) (Q12809 whole entry, the tested form may be a part): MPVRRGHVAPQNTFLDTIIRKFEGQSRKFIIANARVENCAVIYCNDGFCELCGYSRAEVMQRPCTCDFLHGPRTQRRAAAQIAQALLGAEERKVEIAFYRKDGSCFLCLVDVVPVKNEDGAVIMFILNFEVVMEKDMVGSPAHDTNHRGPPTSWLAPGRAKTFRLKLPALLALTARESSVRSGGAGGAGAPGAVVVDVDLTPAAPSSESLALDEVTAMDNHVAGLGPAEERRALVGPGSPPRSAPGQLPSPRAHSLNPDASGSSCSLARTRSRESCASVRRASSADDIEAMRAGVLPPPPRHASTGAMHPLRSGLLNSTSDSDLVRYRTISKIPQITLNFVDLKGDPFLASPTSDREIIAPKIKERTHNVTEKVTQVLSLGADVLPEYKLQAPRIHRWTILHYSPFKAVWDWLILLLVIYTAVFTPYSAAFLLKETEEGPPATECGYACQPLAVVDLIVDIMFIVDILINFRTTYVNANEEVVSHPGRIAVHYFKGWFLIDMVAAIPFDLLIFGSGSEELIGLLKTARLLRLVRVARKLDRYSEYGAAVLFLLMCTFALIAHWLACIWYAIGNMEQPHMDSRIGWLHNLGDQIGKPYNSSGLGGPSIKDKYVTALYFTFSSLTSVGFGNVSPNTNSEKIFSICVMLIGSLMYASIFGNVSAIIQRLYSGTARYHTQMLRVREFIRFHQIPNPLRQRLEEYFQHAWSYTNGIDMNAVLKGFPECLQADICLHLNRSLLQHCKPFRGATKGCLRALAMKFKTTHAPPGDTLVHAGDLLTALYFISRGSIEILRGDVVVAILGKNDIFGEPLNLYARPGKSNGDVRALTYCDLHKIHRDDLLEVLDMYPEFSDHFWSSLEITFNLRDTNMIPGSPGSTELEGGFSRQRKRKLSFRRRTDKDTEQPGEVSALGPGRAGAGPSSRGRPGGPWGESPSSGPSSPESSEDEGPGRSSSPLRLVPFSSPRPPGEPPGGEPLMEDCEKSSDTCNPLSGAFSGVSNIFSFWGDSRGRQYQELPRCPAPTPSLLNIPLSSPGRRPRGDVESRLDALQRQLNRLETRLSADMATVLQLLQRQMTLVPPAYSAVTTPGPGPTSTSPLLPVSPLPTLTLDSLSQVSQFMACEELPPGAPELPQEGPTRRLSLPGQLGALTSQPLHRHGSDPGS

For the molecule `Cc1c(Cl)c2c(Cl)c(C)c1-c1c(-c3ccc(F)cc3)sc3ncnc(c13)O[C@@H](C(=O)O)Cc1cc(ccc1OCc1ccnc(-c3ccc(OC[C@H]4COCCO4)cc3)n1)OC[C@@H](CN1CCN(C)CC1)O2` [ABBV-467], the Ki in series [1] is < 0.0001 µM. Also, the “plasma concentration up to which no effects on blood pressure, heart rate, contractility, systemic vascular resistance, cardiac output, QTcV, QRS, PR interval” value in series [2] is 16 .83 µg/mL. Further, the IC50 in series [3] is > 30 µM. Further, the “impact on cardiovascular endpoints (anatomic, clinical pathology, and/or function)” value was “No direct impact” in series [4] (multidose GLP toxicity study) and “No direct impact” in series [5] (multidose GLP toxicity study, dogs). For the same molecule, the reversibility of toxicities result in series [4] (after a 4-week recovery period) was “partially or fully reversible”; in series [5] (dogs, after a 4-week recovery period) it was “partially or fully reversible”. Further, the “primary target organs of apoptosis/single-cell necrosis” value in series [4] (once-weekly dosing) is “pancreas, liver, gastrointestinal tract, and the hematopoietic system”; in series [5] (dogs, once-weekly dosing), “pancreas, liver, gastrointestinal tract, and the hematopoietic system”. Besides, in series [5] (beagle dog, 10 mg/kg after 1 or 2 doses (days 3–10)), the mortality entry is “Mortality”.

By Ki is commonly meant a dissociation constant, usually derived from enzyme kinetics or from competition with a known ligand. One may read the IC50 as the concentration at which inhibition is half-maximal.
